From patent US10272055B2, “Therapeutic compounds and methods” (Regents of the University of Minnesota, priority 2014, dated 2019)
pIC50: −log10 of the molar value. Entries after “also recorded” stand apart in the source; their conditions may differ. Where two headings read alike, the source gives them in different places.

Assays:
AMPK [1] = experiment: AMPK phosphorylation Western blot in MCF7; assay type: cell-based; settings: for AMPK phosphorylation relative to control: MCF7, 6 hours, metformin, buformin, phenformin 1 mM, HBB 20 uM
Procedure: Western blotting analysis was performed in triplicate.
Cells were plated in complete media in the presence of serum (10% FBS) and cultured at 37° C. with 5% CO2 and treated with biguanides for 6 hours before harvesting. Total protein was extracted and analyzed by Western-blotting with GAPDH as an internal control.
(§1) Cells were plated in complete media in the presence of serum (10% FBS) and cultured at 37° C. with 5% CO2 and treated with 14,15-EET or EtOH control for 24 hours before harvesting. Total protein was extracted and analyzed by Western-blotting with GAPDH as an internal control.

AMPK [2] = experiment: AMPK phosphorylation Western blot in MDA-MB-231; assay type: cell-based; settings: MDA-MB-231, 1 uM 14,15-EET, 24 hours
Procedure: as §1, with “FIG. 38 illustrates that 14,15-EET inactivates AMPK in MCF7 line but not in MDA-MB-231 line. Cells” for “Cells”

CYP3A4 epoxygenase = CYP3A4 epoxygenase (Homo sapiens, UniProt P08684); experiment: CYP3A4 Supersome epoxygenase assay: EET synthesis from arachidonic acid, LC-ESI-MS/MS; settings: for inhibition of CYP3A4-mediated EETs synthesis: CYP3A4 Supersome, arachidonic acid 60 uM, 30 minutes, 37 C
Procedure: Measurements are reported as percentage of control reactions performed with vehicle but no compound. A ^13C-EET recovery standard was used to control for recovery of EETs from extractions. […] EET measurements in these Supersome experiments are expressed as percentage of control reactions. Absolute EET measurements are determined by subtraction of regioisomer values in a baseline reaction lacking NADPH. Measurements were performed in triplicate and values are expressed as the mean±SD.
After the reaction, EETs were then extracted with 1 mL dichloromethane and reconstituted in methanol and analyzed by LC-ESI-MS/MS.

MDA-MB-231 = experiment: MTT growth assay, MDA-MB-231 line; assay type: cell-based; settings: Homo sapiens, MDA-MB-231, 24 h, MTT assay at 24 hours, 10% FBS
Procedure: FIG. 30 illustrates HBB inhibits proliferation of MCF7 and MDA-MB-231 lines. Cells were plated in complete media in the presence of serum (10% FBS) and cultured at 37° C. with 5% CO2 and treated with HBB or DMSO vehicle. Growth was measured at 24 hours by MTT assay. Results were converted to percent growth of control and represented as mean±S.E. (n=8).

MCF-7 cell line = experiment: MTT growth assay, MCF-7 line; assay type: cell-based; settings: Homo sapiens, MCF7, 24 h, read-out: IC50, MCF-7 growth
Procedure: The growth of the MCF-7 line was measured by MTT assay at 24 hours. Cells were plated in complete media in the presence of serum (10% FBS) and cultured at 37° C. with 5% CO2 and treated with the biguanide or DMSO vehicle. Growth was measured at 24 hours by MTT assay.
Cells were plated in complete media in the presence of serum (10% FBS) and cultured at 37° C. with 5% CO2 and treated with HBB or DMSO vehicle. Growth was measured at 24 hours by MTT assay.

STAT3 = STAT3 phosphorylation Western blot in MCF7; assay type: cell-based
Procedure: Western blotting analysis was performed (C=control, M=metform and H=HBB).
Total protein was extracted and analyzed by Western-blotting with GAPDH as an internal control.

MCF7 line = experiment: 14,15-EET protection against biguanide growth inhibition, MTT, MCF7; assay type: cell-based; settings: MCF-7, exogenous (±)-14,15-EET (1 uM)
Procedure: Cells were plated in complete media in the presence of serum (10% FBS) and cultured at 37° C. with 5% CO2 and treated with biguanides for 24 hours in the presence or absence of 1 uM 14,15-EET. Growth was then measured at 24 hour by MTT assay.

MCF7 = experiment: NAC protection against HBB growth inhibition, MTT, MCF7; assay type: cell-based; settings: MCF7, 0.1 mM or 1 mM NAC, at IC50 of HBB
Procedure: FIG. 34 illustrates that N-acetylcysteine (NAC) protects MDA-MB-231 but not MCF7 against HBB-mediated growth inhibition. Cells were plated in complete media in the presence of serum (10% FBS) and cultured at 37° C. with 5% CO2 and treated with HBB in the presence of NAC or PBS control. Growth was then measured at 24 hours by MTT assay. Results were converted to percent growth of control and represented as mean±S.E. (n=8).

MCF-7 xenograft = MCF-7 xenograft in nude mice; assay type: in vivo; settings: metformin 40 mg/kg/day in drinking water vs vehicle
Procedure: FIG. 3A. MCF-7 xenograft with 3×10^6 cells in the 2nd mammary fat pad on day 0. HBB (4 mg/kg ip daily) (ν) or PBS (ρ) treatment began on day 1. * indicates P<0.05. FIG. 3B. MDAMB-231 xenograft with 1×10^6 cells in the 2nd mammary fat pad on day 0. HBB (4 mg/kg ip daily) (ν) or PBS (ρ) treatment began on day 1. N=20 mice per arm for each study; error bars are SEM.
MCF-7 cells were implanted in the mammary fat pad of 4-5 week mice and treatment was initiated when tumor size was ≥15 mm^3 by 2 sequential measurements with randomized assignment to the treatment arms.
FIG. 44A. Nude mice were inoculated with 3×10^6 MCF-7 cells and treated with vehicle (Δ) HBB at the MTD (4 mg/kg/day ip) (▪). (* indicates P<0.05). Error bars are SEM. […] The dose limiting toxicity was weight loss. At the MTD there was a well-tolerated 4% reduction of weight at 42 days (P<0.0001; data not shown). FIG. 44B. Nude mice were inoculated with 1×10^6MDA-MB-231 cells and treated with HBB at the MTD (4 mg/kg/day ip).

CYP3A4 nanodiscs = CYP3A4 nanodiscs (Homo sapiens, UniProt P08684); experiment: CYP3A4 nanodisc spin shift titration; assay type: binding; settings: no CPR; 156 uM and 1.1 mM metformin
[3] = test system: AA metabolism to EET in MCF-7 cells; experiment: EET regioisomer abundance in MCF-7 cells; assay type: cell-based; settings: 0.10 mM metformin, 6 h
CYP3A4 = CYP3A4 protein level in MCF7 cells; assay type: cell-based; settings: MCF7, metformin 1 mM, 48 hours

Chain of CYP3A4 epoxygenase (P08684 whole entry): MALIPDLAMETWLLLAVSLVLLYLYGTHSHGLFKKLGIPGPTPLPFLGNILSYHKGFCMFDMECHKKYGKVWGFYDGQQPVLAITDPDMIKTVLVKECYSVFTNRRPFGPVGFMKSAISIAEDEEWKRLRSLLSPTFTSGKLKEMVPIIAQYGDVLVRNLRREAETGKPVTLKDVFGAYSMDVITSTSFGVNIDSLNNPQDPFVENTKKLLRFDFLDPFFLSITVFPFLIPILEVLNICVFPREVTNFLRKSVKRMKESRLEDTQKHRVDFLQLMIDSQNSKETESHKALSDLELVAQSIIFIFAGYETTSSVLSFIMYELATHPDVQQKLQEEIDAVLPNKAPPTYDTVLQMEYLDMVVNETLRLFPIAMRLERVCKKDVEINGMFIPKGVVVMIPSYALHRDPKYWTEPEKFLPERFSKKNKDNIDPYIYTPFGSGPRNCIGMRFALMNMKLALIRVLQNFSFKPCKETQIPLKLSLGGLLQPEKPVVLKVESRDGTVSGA
Chain of CYP3A4 nanodiscs (P08684 whole entry): as above

Compound: CCCCCC1OC1CC=CCC=CCC=CCCCC(=O)O (racemic) [14,15-EET, (±)-14,15-epoxyeicosatrienoic acid, reference compound]
- AMPK phosphorylation relative to EtOH control (AMPK [1]; MCF7, 1 uM 14,15-EET, 24 hours): decreased phosphorylation of AMPK
- AMPK phosphorylation relative to control (AMPK [2]): no statistical significant change of AMPK phosphorylation

Compound: CCCCCCNC(=N)NC(=N)NCc1ccccc1.Cl [HBB-HCl, N1-hexyl-N5-benzyl biguanide hydrochloride]
- pIC50 (CYP3A4 epoxygenase; IC50, inhibition of CYP3A4 epoxygenase): ~4.30
- pIC50 (MDA-MB-231): 4.70
- pIC50 (MCF-7 cell line; MTT assay at 24 hours, 10% FBS): 4.70
- concentration that inhibits STAT3 phosphorylation (STAT3): > 10 µM
- fold more potent than metformin, inhibition of Stat3 phosphorylation (STAT3; vs metformin): > 100 fold
- concentration that activates AMPK phosphorylation (AMPK [1]): > 10 µM
- fold more potent than metformin, activation of AMPK phosphorylation (AMPK [1]; vs metformin): > 100 fold
- rescue of MCF-7 growth by 14,15-EET in the presence of the biguanide (MCF7 line): partially inhibited

Compound: CCCCCCNC(=N)NC(=N)NCc1ncc[nH]1 [HIB 2-yl, N1-hexyl-N5-((1H-imidazol-2-yl)methyl)-biguanide]
- pIC50 (MCF-7 cell line; MTT assay at 24 hours, 10% FBS): < 3.82

Compound: CCCCCCNC(=N)NC(=N)NCc1ccncc1 [HPB, N1-hexyl-N5-(pyridin-4-ylmethyl) biguanidine]
- pIC50 (MCF-7 cell line; MTT assay at 24 hours, 10% FBS): 4.40

Compound: CC(=O)N[C@@H](CS)C(=O)O [NAC, N-acetylcysteine]
- protection by NAC against HBB-mediated growth inhibition (MCF7): failed to protect

Compound: CCCCNC(=N)NC(=N)N [buformin]
- pIC50 (MCF-7 cell line): < 2.00
- AMPK phosphorylation relative to control (AMPK [1]): increased phosphorylation of AMPK
- rescue of MCF-7 growth by 14,15-EET in the presence of the biguanide (MCF7 line): rescues the MCF-7 line; also recorded: partial rescue

Compound: CN(C)C(=N)N=C(N)N [metformin, reference compound]
- tumor growth, MCF-7 xenograft (MCF-7 xenograft): inhibits the MCF-7 xenograft
- tumor growth, MCF-7 xenograft (MCF-7 xenograft; listed as Metformin): suppressed tumor growth
- binding to CYP3A4 nanodiscs (CYP3A4 nanodiscs): binds to functional CYP3A4 epoxygenase nanodiscs
- inhibition of CYP3A4-mediated EETs synthesis (CYP3A4 epoxygenase): inhibit CYP3A4 epoxygenase; also recorded: significantly reduced EETs production
- pIC50 (MCF-7 cell line; MTT assay at 24 hours, 10% FBS): < 2.00
- abundance of EET regioisomers [3]: reduced abundance
- CYP3A4 protein level (CYP3A4): does not change CYP3A4 protein level
- rescue of MCF-7 growth by 14,15-EET in the presence of the biguanide (MCF7 line): rescues the MCF-7 line; also recorded: partial rescue

Compound: [H]/N=C(/N)N/C(=N/[H])NCCc1ccccc1 [phenformin, reference compound]
- inhibition of CYP3A4-mediated EETs synthesis (CYP3A4 epoxygenase): inhibit CYP3A4 epoxygenase
- pIC50 (MCF-7 cell line; MTT assay at 24 hours, 10% FBS): 2.10
- AMPK phosphorylation relative to control (AMPK [1]): increased phosphorylation of AMPK
- rescue of MCF-7 growth by 14,15-EET in the presence of the biguanide (MCF7 line): rescues the MCF-7 line; also recorded: partial rescue
